Measurements reported in publication PMC11876601 (Molecular Systems Biology, 2025).
Like-named read-outs stand apart in the source and are kept apart here.

What was measured:
Test in all cases: cells
AsPC-1 [1] = tested on: AsPC-1; parameters: ATPlite luminescence viability of PDAC cell lines, 11-dose single-agent curves, 4-parameter fit; settings: Homo sapiens, ASPC1, 72 h, read-out: EC50 [nM]
Outline: (§1)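 cells (1000 to 5000 per well) seeded 24 h before drug addition in a combination screen at 0.2% final DMSO. Controls were drug-free wells (negative) and 5 µM staurosporine (positive).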

HPDE [2] = tested on: HPDE; parameters: ATPlite luminescence viability of PDAC cell lines, 11-dose single-agent curves, 4-parameter fit; settings: HPDE, 72 h, read-out: EC50 [nM]
Outline: as §1

MiaPaCa-2 [3] = tested on: MiaPaCa-2; parameters: ATPlite luminescence viability of PDAC cell lines, 11-dose single-agent curves, 4-parameter fit; settings: Homo sapiens, MIA PaCa-2, 72 h, read-out: EC50 [nM]
Outline: as §1

Suit2-07 [4] = tested on: Suit2-07; parameters: ATPlite luminescence viability of PDAC cell lines, 11-dose single-agent curves, 4-parameter fit; settings: 72 h, read-out: EC50 [nM]
Outline: as §1

BxPC-3 [5] = tested on: BxPC-3; parameters: Viability of PDAC cell lines, ATPlite luminescence, 11-dose single-agent curve fit; settings: Homo sapiens, BXPC-3, 72 h, read-out: EC50 [nM]
Outline: (§2)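 cells (1000 to 5000 per well) seeded 24 h before drug addition in a screen at 0.2% final DMSO. Controls were drug-free wells (negative) and 5 µM staurosporine (positive).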

Capan-1 [6] = tested on: Capan-1; parameters: Viability of PDAC cell lines, ATPlite luminescence, 11-dose single-agent curve fit; settings: Homo sapiens, CAPAN-1, 72 h, read-out: EC50 [nM]
Outline: as §2

Colo-357 [7] = tested on: Colo-357; parameters: Viability of PDAC cell lines, ATPlite luminescence, 11-dose single-agent curve fit; settings: Homo sapiens, COLO357, 72 h, read-out: EC50 [nM]
Outline: as §2

Dan-G [8] = tested on: Dan-G; parameters: Viability of PDAC cell lines, ATPlite luminescence, 11-dose single-agent curve fit; settings: 72 h, read-out: EC50 [nM]
Outline: as §2

FAMPAC [9] = tested on: FAMPAC; parameters: Viability of PDAC cell lines, ATPlite luminescence, 11-dose single-agent curve fit; settings: 72 h, read-out: EC50 [nM]
Outline: as §2

HuP-T4 = tested on: HuP-T4; parameters: Viability of PDAC cell lines, ATPlite luminescence, 11-dose single-agent curve fit; settings: Homo sapiens, HuP-T4, 72 h, read-out: EC50 [nM]
Outline: as §2

PANC-1 = tested on: PANC-1; parameters: Viability of PDAC cell lines, ATPlite luminescence, 11-dose single-agent curve fit; settings: Homo sapiens, PANC-1, 72 h, read-out: EC50 [nM]
Outline: as §2

PSN-1 [10] = tested on: PSN-1; parameters: Viability of PDAC cell lines, ATPlite luminescence, 11-dose single-agent curve fit; settings: Homo sapiens, PSN1, 72 h, read-out: EC50 [nM]
Outline: as §2

PaTu-8988-T [11] = tested on: PaTu-8988-T; parameters: Viability of PDAC cell lines, ATPlite luminescence, 11-dose single-agent curve fit; settings: Homo sapiens, PaTu 8988t, 72 h, read-out: EC50 [nM]
Outline: as §2

Capan-1 [12] = tested on: Capan-1; parameters: ATPlite luminescence viability of PDAC cell lines, 11-dose single-agent curves, 4-parameter fit; settings: Homo sapiens, CAPAN-1, 72 h, read-out: EC50 [nM]
Outline: as §1

Colo-357 [13] = tested on: Colo-357; parameters: ATPlite luminescence viability of PDAC cell lines, 11-dose single-agent curves, 4-parameter fit; settings: Homo sapiens, COLO357, 72 h, read-out: EC50 [nM]
Outline: as §1

Dan-G [14] = tested on: Dan-G; parameters: ATPlite luminescence viability of PDAC cell lines, 11-dose single-agent curves, 4-parameter fit; settings: 72 h, read-out: EC50 [nM]
Outline: as §1

FAMPAC [15] = tested on: FAMPAC; parameters: ATPlite luminescence viability of PDAC cell lines, 11-dose single-agent curves, 4-parameter fit; settings: 72 h, read-out: EC50 [nM]
Outline: as §1

PSN-1 [16] = tested on: PSN-1; parameters: ATPlite luminescence viability of PDAC cell lines, 11-dose single-agent curves, 4-parameter fit; settings: Homo sapiens, PSN1, 72 h, read-out: EC50 [nM]
Outline: as §1

AsPC-1 [17] = tested on: AsPC-1; parameters: Viability of PDAC cell lines, ATPlite luminescence, 11-dose single-agent curve fit; settings: Homo sapiens, ASPC1, 72 h, read-out: EC50 [nM]
Outline: as §2

HPDE [18] = tested on: HPDE; parameters: Viability of PDAC cell lines, ATPlite luminescence, 11-dose single-agent curve fit; settings: HPDE, 72 h, read-out: EC50 [nM]
Outline: as §2

BxPC-3 [19] = tested on: BxPC-3; parameters: ATPlite luminescence viability of PDAC cell lines, 11-dose single-agent curves, 4-parameter fit; settings: Homo sapiens, BXPC-3, 72 h, read-out: EC50 [nM]
Outline: as §1

PaTu-8988-T [20] = tested on: PaTu-8988-T; parameters: ATPlite luminescence viability of PDAC cell lines, 11-dose single-agent curves, 4-parameter fit; settings: Homo sapiens, PaTu 8988t, 72 h, read-out: EC50 [nM]
Outline: as §1

MiaPaCa-2 [21] = tested on: MiaPaCa-2; parameters: Viability of PDAC cell lines, ATPlite luminescence, 11-dose single-agent curve fit; settings: Homo sapiens, MIA PaCa-2, 72 h, read-out: EC50 [nM]
Outline: as §2

Suit2-07 [22] = tested on: Suit2-07; parameters: Viability of PDAC cell lines, ATPlite luminescence, 11-dose single-agent curve fit; settings: 72 h, read-out: EC50 [nM]
Outline: as §2

| Compound | EC50 (AsPC-1 [1]) [nM] | EC50 (MiaPaCa-2 [3]) [nM] | EC50 (Colo-357 [7]) [nM] | EC50 (PANC-1) [nM] | EC50 (Colo-357 [13]) [nM] | EC50 (AsPC-1 [17]) [nM] | EC50 (BxPC-3 [19]) [nM] | EC50 (HPDE [2]) [nM] | EC50 (Suit2-07 [4]) [nM] | EC50 (Capan-1 [6]) [nM] | EC50 (HuP-T4) [nM] | EC50 (PSN-1 [10]) [nM] | EC50 (PaTu-8988-T [11]) [nM] | EC50 (Dan-G [14]) [nM] | EC50 (FAMPAC [15]) [nM] | EC50 (PSN-1 [16]) [nM] | EC50 (PaTu-8988-T [20]) [nM] | also measured |
| --- | --- | --- | --- | --- | --- | --- | --- | --- | --- | --- | --- | --- | --- | --- | --- | --- | --- | --- |
| C[C@]1(O)C[C@@H](c2nc(-c3ccc4ccc(-c5ccccc5)nc4c3)c3c(N)nccn32)C1 [Linsitinib] | 1540 | 416 | 4180 | > 10000 | – | – | – | 7060 | 239 | 1750 | 21.6 | 7340 | 6100 | – | – | – | – | EC50 (BxPC-3 [5]): > 10000 nM; EC50 (Dan-G [8]): 3840 nM; EC50 (FAMPAC [9]): 4850 nM |
| NC(=O)c1cccc2cn(-c3ccc([C@@H]4CCCNC4)cc3)nc12 [Niraparib] | – | 2020 | – | 3580 | 1160 | > 10000 | – | – | 1010 | – | 10.5 | – | 4150 | 1710 | 3370 | 1740 | – | EC50 (Capan-1 [12]): 3180 nM; EC50 (BxPC-3 [5]): 1010 nM; EC50 (HPDE [18]): 4720 nM |
| C[C@@H]1COC(Nc2ccc3ncnc(Nc4ccc(OCc5nccs5)c(Cl)c4)c3c2)=N1 [Varlitinib] | – | – | – | > 10000 | 676 | 390 | 1760 | 1930 | – | 724 | 40.5 | 2940 | 861 | 630 | > 10000 | – | – | EC50 (MiaPaCa-2 [21]): 4440 nM; EC50 (Suit2-07 [22]): 2070 nM |

The next lines start with results.

| EC50 (AsPC-1 [1]) [nM] | EC50 (MiaPaCa-2 [3]) [nM] | EC50 (Colo-357 [7]) [nM] | EC50 (PANC-1) [nM] | EC50 (Colo-357 [13]) [nM] | EC50 (AsPC-1 [17]) [nM] | EC50 (BxPC-3 [19]) [nM] | Compound | EC50 (HPDE [2]) [nM] | EC50 (Suit2-07 [4]) [nM] | EC50 (Capan-1 [6]) [nM] | EC50 (HuP-T4) [nM] | EC50 (PSN-1 [10]) [nM] | EC50 (PaTu-8988-T [11]) [nM] | EC50 (Dan-G [14]) [nM] | EC50 (FAMPAC [15]) [nM] | EC50 (PSN-1 [16]) [nM] | EC50 (PaTu-8988-T [20]) [nM] | also measured |
| --- | --- | --- | --- | --- | --- | --- | --- | --- | --- | --- | --- | --- | --- | --- | --- | --- | --- | --- |
| 6710 | 5290 | 8230 | > 10000 | – | – | 5220 | C=CC(=O)Nc1cccc(Oc2nc(Nc3ccc(N4CCN(C)CC4)cc3)nc3ccsc23)c1 [Olmutinib] | 3900 | 7100 | > 10000 | 2230 | – | – | > 10000 | > 10000 | 7020 | > 10000 | – |
| 1270 | 589 | 611 | > 10000 | – | – | 467 | CCn1c(=O)c(-c2cc(NC(=O)Nc3ccccc3)c(F)cc2Br)cc2cnc(NC)cc21 [Ripretinib] | 901 | 431 | 758 | 592 | – | – | 501 | 912 | 582 | 717 | – |
| > 10000 | 2340 | 10100 | > 10000 | – | – | 2840 | CCN(CC)CCNC(=O)c1c(C)[nH]c(/C=C2\C(=O)Nc3ccc(F)cc32)c1C [Sunitinib] | 5050 | 3180 | > 10000 | 114 | – | – | 4120 | 5670 | 5160 | 2190 | – |
| > 10000 | > 10000 | – | 3860 | 6050 | – | 3600 | COc1cc2/c(=N/c3ccc(Br)cc3F)nc[nH]c2cc1OCC1CCN(C)CC1 [Vandetanib] | 1520 | > 10000 | > 10000 | 23.9 | > 10000 | – | > 10000 | > 10000 | – | > 10000 | – |
| – | – | 2200 | 3410 | – | 300 | > 10000 | C=CC(=O)N1CCC([C@@H]2CCNc3c(C(N)=O)c(-c4ccc(Oc5ccccc5)cc4)nn32)CC1 [Zanubrutinib] | 3010 | – | 2290 | 796 | 132 | 547 | – | – | – | – | EC50 (Dan-G [8]): 578 nM; EC50 (FAMPAC [9]): 75.9 nM; EC50 (MiaPaCa-2 [21]): 9130 nM; EC50 (Suit2-07 [22]): 7180 nM |
